How the values were obtained:
[1] = tested on: EMT6 breast cancer cell line; test: Antiproliferative screening on EMT6 cancer cells; type: cell-based; conditions: for activity at 100 µM: Mus musculus, EMT6, no ligand = 100, read-out: EMT6 cell proliferation (%); for EMT6 cell proliferation (%) / inhibition of EMT6 cell proliferation: 100 μM; for EMT6 cell proliferation (%): no ligand = 100
Protocol: Representative compounds were screened tested for antiproliferative activity on the EMT6 breast cancer cell line. Screening was carried out according to published procedures (Zeng et al., 2014). In this screen, compounds were tested at 100 μM concentration.

[2] = target: sphingosine-1-phosphate receptor 1 (S1PR1) (Homo sapiens, UniProt P21453); test: Radioligand binding to sphingosine-1-phosphate receptor 1; conditions: test compound 100 nM, 0.2 nM radioligand; for inhibition at 0.1 µM: read-out: % INHIBITION of binding to the SIP1 Receptor
Protocol: The binding of a representative group of compounds of this invention to sphingosine-1-phosphate receptor 1 (S1PR1) was determined by a published procedure (Rosenberg et al., 2016). In this assay, the test compound at 100 nM concentration was incubated with 0.2 nM radioligand. Active compounds or “hits” are defined as compounds that inhibit radioligand binding by 50% or more. […] This finding is significant because it establishes the 3′,4′-dihydro-2′H-[…]-2-one hybrid scaffold as an entirely new class of ligands for the sphingosine-1-phosphate receptors.

[3] = tested on: nonsmall cell lung cancer (NSCLC) cell lines; test: NCI-60 screen, NSCLC cell lines; type: cell-based, human; conditions: Homo sapiens, NCI-60 preliminary screening, read-out: Percent (%) Inhibition of Cancer Cell Line, NSCLC
Protocol: (§1) Screening for Anticancer Activity—The NCI-60 panel: Representative compounds of the invention were subjected to anticancer testing in the National Cancer Institute (NCI) 60 screen. In this screen compounds are tested on a panel of sixty human cancer cell lines chosen from the following cancers: leukemia, nonsmall cell lung cancer (NSCLC), colon, melanoma, central nervous system (CNS), ovarian, renal, prostate and breast. The assay method is found on the NCI website (dtp.cancer.gov/discovery_development/nci-60/methodology.htm). In the NCI-60 assay, test compounds undergo preliminary screening at 10 μM concentration. The data is reported as percent growth relative to “no drug” control; therefore values between 0 and 100% denote growth inhibition.

renal cancer cell lines = test: NCI-60 screen, renal cell lines; type: cell-based, human; conditions: Homo sapiens, NCI-60 preliminary screening, read-out: Percent (%) Inhibition of Cancer Cell Line, Renal Cell
Protocol: as §1

leukemia cell lines = test: NCI-60 screen, leukemia cell lines; type: cell-based; conditions: Homo sapiens, NCI-60 preliminary screening, read-out: Percent (%) Inhibition of Cancer Cell Line, Leukemia
Protocol: as §1

[4] = tested on: prostate cancer cell lines; test: NCI-60 screen, prostate cell lines; type: cell-based, human; conditions: Homo sapiens, Prostate cell, NCI-60 preliminary screening, read-out: Percent (%) Inhibition of Cancer Cell Line, Prostate
Protocol: as §1

breast cancer cell lines = test: NCI-60 screen, breast cell lines; type: cell-based, human; conditions: Homo sapiens, NCI-60 preliminary screening, read-out: Percent (%) Inhibition of Cancer Cell Line, Breast
Protocol: as §1

sphingosine-1-phosphate receptor 1 (S1PR1), sequence (P21453 whole entry, species assumed): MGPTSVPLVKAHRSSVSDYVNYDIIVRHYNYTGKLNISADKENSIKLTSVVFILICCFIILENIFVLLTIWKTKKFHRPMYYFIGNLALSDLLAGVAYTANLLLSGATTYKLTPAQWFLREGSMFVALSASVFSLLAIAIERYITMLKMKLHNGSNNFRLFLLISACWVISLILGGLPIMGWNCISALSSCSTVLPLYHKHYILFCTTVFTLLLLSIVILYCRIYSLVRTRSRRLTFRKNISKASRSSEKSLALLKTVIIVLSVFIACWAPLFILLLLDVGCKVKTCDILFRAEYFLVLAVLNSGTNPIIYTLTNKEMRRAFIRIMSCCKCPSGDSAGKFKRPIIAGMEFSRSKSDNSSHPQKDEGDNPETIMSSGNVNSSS

Structure (SMILES)	activity at 100 µM [1]	inhibition at 0.1 µM [2]	inhibition at 10 µM (renal cancer cell lines)	further results
O=C1N(Cc2ccc(Br)cc2)c2ccccc2C12NCCc1cccc(O)c12 (stereo not drawn) [Compound 1f, 1-(4-bromobenzyl)-8′-hydroxy-3′,4′-dihydro-2′H-spiro[indoline-3,1′-isoquinolin]-2-one]	103%	≥ 50%	–	–
Cc1ccc(CN2C(=O)C3(NCCc4cccc(O)c43)c3ccccc32)cc1 (stereo not drawn) [Compound 1h, 8′-Hydroxy-1-(4-methylbenzyl)-3′,4′-dihydro-2′H-spiro[indoline-3,1′-isoquinolin]-2-one]	127%	≥ 50%	–	–
O=C1N(Cc2ccccc2[N+](=O)[O-])c2ccccc2C12NCCc1cccc(O)c12 (stereo not drawn) [Compound 1i, 8-Hydroxy-1-(2-nitrobenzyl)-3′,4′-dihydro-2′H-spiro[indoline-3,1′-isoquinolin]-2-one]	–	–	–	EMT6 cell proliferation (%) [1]: 108.20%; % INHIBITION of binding to the SIP1 Receptor [2]: 35.4%
O=C1Nc2ccc(Cl)cc2C12NCCc1cc(O)ccc12 (stereo not drawn) [Compound 2b, 5-Chloro-6′-hydroxy-3′,4′-dihydro-2′H-spiro[indoline-3,1′-isoquinolin]-2-one]	109%	–	17%	inhibition at 10 µM [3]: 17%
O=C1N(Cc2ccc(Cl)c(Cl)c2)c2ccccc2C12NCCc1cc(O)ccc12 (stereo not drawn) [Compound 2g, 1-(3,4-Dichlorobenzyl)-6′-hydroxy-3′,4′-dihydro-2′H-spiro[indoline-3,1′-isoquinolin]-2-one]	56.5%	–	22 to 36%	inhibition at 10 µM [3]: 25%; inhibition at 10 µM (leukemia cell lines): 19%; inhibition at 10 µM [4]: 19%; inhibition at 10 µM (breast cancer cell lines): 13%; inhibition of EMT6 cell proliferation [1]: as much as fifty percent
Cc1ccc(CN2C(=O)C3(NCCc4cc(O)ccc43)c3ccccc32)cc1 (stereo not drawn) [Compound 2h, 6′-Hydroxy-1-(4-methylbenzyl)-3′,4′-dihydro-2′H-spiro[indoline-3,1′-isoquinolin]-2-one]	132%	–	25%	inhibition at 10 µM [3]: 32%; inhibition at 10 µM (leukemia cell lines): 24%
O=C1N(Cc2ccc(Cl)cc2)c2ccc(Cl)cc2C12NCCc1cc(O)ccc12 (stereo not drawn) [Compound 2l, 5-Chloro-1-(4-chlorobenzyl)-6′-hydroxy-3′,4′-dihydro-2′H-spiro[indoline-3,1′-isoquinolin]-2-one]	37.2%	≥ 50%	–	inhibition of EMT6 cell proliferation [1]: as much as fifty percent
Cc1ccc(CN2C(=O)C3(NCCc4cc(O)ccc43)c3cc(Cl)ccc32)cc1 (stereo not drawn) [Compound 2m, 5-Chloro-6′-hydroxy-1-(4-methylbenzyl)-3′,4′-dihydro-2′ spiro[indoline-3,1′-isoquinolin]-2-one]	–	–	–	EMT6 cell proliferation (%) [1]: 72.26%; % INHIBITION of binding to the SIP1 Receptor [2]: 52.4%
O=C1Nc2ccccc2C12NCCc1cc(O)c(O)cc12 (stereo not drawn) [Compound 3a, 6′,7′-Dihydroxy-3′,4′-dihydro-2′H-spiro[indoline-3,1′-isoquinolin]-2-one]	91.2%	–	–	–
COc1ccc2c(c1)CCNC21C(=O)Nc2ccc(Cl)cc21 (stereo not drawn) [Compound 4b, 5-Chloro-6′-methoxy-3′,4′-dihydro-2′H-spiro[indoline-3,1′-isoquinolin]-2-one]	142%	–	23 to 30%	–
COc1cc2c(cc1OC)C1(NCC2)C(=O)Nc2ccccc21 (stereo not drawn) [Compound 5a, 6′,7′-Dimethoxy-3′,4′-dihydro-2′H-spiro[indoline-3,1′-isoquinolin]-2-one]	–	39.1%	25 to 37%	–
COc1cc2c(c(OC)c1OC)C1(NCC2)C(=O)Nc2ccccc21 (stereo not drawn) [Compound 6a, 6′,7′,8′-Trimethoxy-3′,4′-dihydro-2′H-spiro[indoline-3,1′-isoquinolin]-2-one]	–	38.4%	22%	inhibition at 10 µM (leukemia cell lines): 22%
